According to patent publication US6444454B1, “Method for increasing the gene expression of saccharose synthase” (Forschungszentrum Julich GmbH, priority 1997, dated 2002):

How the values were obtained:
Format in all cases: biochemical
[1] = target: T1, Saccharose Synthase (Solanum tuberosum, UniProt P10691); test: splitting of disaccharides with UDP; settings: disaccharide 250 mM, UDP 2 mM, 24 hours at 30° C.
T1 construct: made in house; host or cells: Saccharomyces cerevisiae strain 22574d, plasmid pDRSuSy (pDR195, proton-ATPase promoter)
Description: For the synthase of UDP-2-Desoxyglucose and UDP-N-Acetylglucoseamine, the following reaction composition is used. [table] The reaction mixture is incubated for 24 hours at 30° C. and the reaction stopped at 95° over a period of 5 minutes.

[2] = target: T1, Saccharose Synthase; test: acceptance of different NDP's in saccharose splitting; settings: NDP 1.6 mM, saccharose 500 mM, 0.035 U enzyme, pH 7.6, 30° C.
Description: Initially the acceptance of the recombinant saccharose synthase for different NDP's in saccharose splitting was investigated. The reaction conditions was as follows: [table] The reactions with different NDP's were carried out at a temperature of 30° C.

[3] = target: T1, Saccharose Synthase; test: Michaelis-Menten-Kinetics of saccharose splitting with UDP; settings: UDP 1.6 mM, 14 mU enzyme, pH 7.6, 30° C., 10 minutes
Description: In addition, the Michaelis-Menten-Kinetics of the saccharose splitting with the recombinant saccharose synthase with UDP as a function of saccharose was determined.
The reaction condition for this were as follows:
The reactions were carried out at a temperature of 30° C.; the reaction time amounted in each case to 10 minutes.
In FIG. 5, the Michaelis-Menten-Kinetics of saccharose synthase as a function of saccharose concentration is shown. […] The concentrations of more than 600 mM saccharose substrate excess limiting sets in.

T1 sequence (P10691 whole entry): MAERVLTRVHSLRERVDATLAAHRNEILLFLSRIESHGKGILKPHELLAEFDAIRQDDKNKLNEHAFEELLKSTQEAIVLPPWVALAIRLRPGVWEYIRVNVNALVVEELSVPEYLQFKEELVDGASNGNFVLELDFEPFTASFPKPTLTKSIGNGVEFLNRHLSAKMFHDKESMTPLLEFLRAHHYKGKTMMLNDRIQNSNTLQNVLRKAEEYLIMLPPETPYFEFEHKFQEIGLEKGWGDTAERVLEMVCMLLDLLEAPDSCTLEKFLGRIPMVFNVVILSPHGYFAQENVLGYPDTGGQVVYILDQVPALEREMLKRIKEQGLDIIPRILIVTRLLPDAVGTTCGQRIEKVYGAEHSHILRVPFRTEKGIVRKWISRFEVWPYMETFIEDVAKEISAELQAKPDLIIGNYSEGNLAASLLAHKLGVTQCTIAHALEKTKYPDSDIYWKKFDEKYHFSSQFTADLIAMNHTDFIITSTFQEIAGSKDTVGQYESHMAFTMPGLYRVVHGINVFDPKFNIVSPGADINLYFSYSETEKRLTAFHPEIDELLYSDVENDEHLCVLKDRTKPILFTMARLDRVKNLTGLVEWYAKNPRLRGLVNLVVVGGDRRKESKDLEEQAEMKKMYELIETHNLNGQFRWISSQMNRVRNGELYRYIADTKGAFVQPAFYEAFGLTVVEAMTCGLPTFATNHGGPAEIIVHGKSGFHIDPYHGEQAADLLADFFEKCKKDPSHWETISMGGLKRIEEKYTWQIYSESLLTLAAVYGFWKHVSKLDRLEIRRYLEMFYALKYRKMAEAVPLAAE

Molecule | acceptance of NDP's in saccharose splitting as a function of reaction time (sequence) [2] | other results
N-acetyl saccharosamine |  | disaccharide converted ([1]; 1.25 U of the enzyme): 12.4%
Nc1ncnc2c1ncn2[C@@H]1O[C@H](COP(=O)(O)OP(=O)(O)O)[C@@H](O)[C@H]1O [ADP] | UDP>ADP=TDP>CDP>GDP | 
Nc1nc2c(ncn2[C@@H]2O[C@H](COP(=O)(O)OP(=O)(O)O)[C@@H](O)[C@H]2O)c(=O)[nH]1 [GDP] | UDP>ADP=TDP>CDP>GDP | 
O=c1ccn([C@@H]2O[C@H](COP(=O)(O)OP(=O)(O)O)[C@@H](O)[C@H]2O)c(=O)[nH]1 [UDP] | UDP>ADP=TDP>CDP>GDP | 
OC[C@H]1O[C@@](CO)(O[C@H]2O[C@H](CO)[C@@H](O)[C@H](O)[C@H]2O)[C@@H](O)[C@@H]1O [saccharose] |  | Km [3]: 66 mM; saccharose concentration at which substrate excess limiting sets in [3]: more than 600 mM
OC[C@H]1OC(CO)(O[C@@H]2C[C@@H](O)[C@H](O)[C@@H](CO)O2)[C@@H](O)[C@@H]1O (stereo partly drawn) [two desoxy saccharose, 2-desoxysaccharose] |  | disaccharide split off ([1]; 0.11 U saccharose synthase): 5.9%
Nc1ccn([C@@H]2O[C@H](COP(=O)(O)OP(=O)(O)O)[C@@H](O)[C@H]2O)c(=O)n1 [CDP] | UDP>ADP=TDP>CDP>GDP | 
Cc1cn([C@H]2C[C@H](O)[C@@H](COP(=O)(O)OP(=O)(O)O)O2)c(=O)[nH]c1=O [TDP] | UDP>ADP=TDP>CDP>GDP | 
